We go through 16 compounds from patent publication EP0066351A1, “Arylethanol amine derivatives, their preparation and use in pharmaceutical compositions” (priority 1981, dated 1982).

Counter-ions that a name gives are not always drawn. Like-named read-outs stand apart in the source and are kept apart here.

Assay [1] deals with Female CFLP mice. Put plainly: Hypoglycaemic activity: blood glucose after subcutaneous glucose load in fasted mice. Format: in vivo. The note with it: glucose 1 g/kg s.c. 30 minutes after dosing, area over 2 hours vs water controls. On the procedure:
Female CFLP mice, each weighing approximately 25 g, were fasted for 24 hours prior to the study. The compounds under study were administered orally as an aqueous solution to each of 7 mice. 7 mice were given water as a control. 30 minutes later a blood sample (20 µl) was obtained from the tail for the analysis of blood glucose. Immediately after taking this blood sample, glucose (1 g/kg body weight) was administered subcutaneously to each mouse. Blood samples were then obtained from each mouse at 30 minute intervals for 120 minutes.
Compounds that produced a significant (P<0.05) reduction of blood glucose, compared with control mice given water, at any time interval, were considered active. The area under the blood glucose curve over the 2 hour period after the administration of the glucose was calculated for each compound and compared with the value for control animals.

Assay [2] relates to Female CFLP mice. Put plainly: Effect on energy expenditure and food intake of mice. Format: in vivo. As to conditions: Mus musculus; for response vs control in vivo at 25.5 mg/kg / response vs control in vivo at 23.8 mg/kg / response vs control in vivo at 18.8 mg/kg / response vs control in vivo at 21.3 mg/kg / response vs control in vivo at 20.7 mg/kg / response vs control in vivo at 19.6 mg/kg / response vs control in vivo at 25.6 mg/kg / response vs control in vivo at 20.8 mg/kg / response vs control in vivo at 26.7 mg/kg / response vs control in vivo at 23.6 mg/kg / response vs control in vivo at 21.2 mg/kg: po, 21 h; for response vs control in vivo at 18.9 mg/kg: dose 18.9 mg/kg po, mice, 21 hours after dosing, percentage of mice dosed with water. As to the method:
Female CFLP mice each weighing approximately 24 g, were given food and water ad lib before and during the experiment. The compounds were dissolved in water by addition of one mole of hydrochloric acid per mole of compound and these solutions were administered orally to each of 12 mice. A further 12 mice were dosed orally with water. The mice were placed in boxes through which air was drawn and the oxygen content of the air leaving the boxes was measured. The energy expenditure of the mice was calculated for 21 hours after dosing from the volume of air leaving the boxes and its oxygen content following the principles described by J B de V Weir, J Physiol (London) 109, 1-9, (1949). The food intake of the mice was measured over this same period of 21 hours. The results are expressed as a percentage of the mean food intake or rate of energy expenditure of the mice dosed with water.

The subject of another assay is Rat hearts. The assay is described as follows: Cardiac activity: rat hearts perfused by the Langendorff procedure. On the procedure: Rat hearts were perfused by the Langendorff procedure as follows: • Hearts were dissected free within 30 seconds of death and reverse perfused via the aorta and coronary vessels with Krebs-Ringer bicarbonate solution (pH 7.4, 37 °C) gassed with 95% oxygen:5% carbon dioxide at a flow rate between 8-12 cm^3/minute. Responses were observed after injection of drug dissolved in isotonic saline into the perfusion media.
Results are expressed as a percentage of the maximum response due to salbutamol.

The subject of another assay is platelets. The assay is described as follows: Collagen-induced platelet aggregation in human whole blood in vitro. Format: cell-based. The note with it: collagen EC50 in presence of compound divided by control EC50, 3 mins preincubation. On the procedure:
Collagen-induced platelet aggregation in human whole blood in vitro.
Collagen added to stirred citrated blood causes platelet aggregation. As the platelets aggregate, the concentration of single platelets falls. […] Inhibitors of aggregation, such as aspirin and dipyridamole, reduce the response to collagen.
Blood drawn from volunteers who denied taking aspirin within the previous seven days was mixed with 0.1 vol 129 mM trisodium citrate, dispensed into 0.5 ml aliquots and kept at 25°. Collagen (Hormon-Chemie, Munich) or 154 mM NaCl (control) was added to each aliquot of blood stirred at 1100 rpm in an aggregometer at 37° after 3 mins preincubation with compound or appropriate solvent. Aggregates were fixed by addition of 0.5 vol 4.5% formaldehyde or 0.05 vol phosphate-buffered glutaraldehyde. Single platelets were counted electronically. Responses, expressed as per cent fall in platelet count, were obtained to a range of collagen concentrations. The concentration producing a 50% maximal effect (EC50) was estimated from log10 concentration-response curves. Dose-ratios were calculated by dividing the EC50 obtained in the presence of compound under test by the control EC50.

Another assay has as its system rat ear. The assay is described as follows: Topical anti-inflammatory activity: croton oil induced inflammation in the rat ear. In kind it is in vivo. The note with it: dose 1.0 mg/rat ear, topical in 1% croton oil in tetrahydrofuran; ear weight after 6 hours; active = significant (5% level) reduction vs non-drug treated control. On the procedure:
The method used is based on that described by G. Tonelli et al (Endocrinology, 77, 625-634, 1965). An inflammation is induced in the rat ear by the application of 50 µl of a 1% solution of croton oil in tetrahydrofuran, test compounds being dissolved in the irritant vehicle. After 6 hours the inflammation is assessed by killing the animals and weighing the ears. Topical anti-inflammatory activity of a compound is generally considered to be shown when a significant (5% level) reduction in ear weight is seen compared to non-drug treated control.

Setting [3] is: read-out: Mean Energy Expenditure (%).
Where [4] appears, read: Rattus norvegicus, read-out: Heart Rate.
Setting [5] is: Rattus norvegicus, read-out: Heart Tension.
The mark [6] stands for this setting: final concentration in whole blood 200 µM.
Where [7] appears, read: 10 μg added to perfusate, percentage of the maximum response due to salbutamol, perfused rat heart, read-out: Heart Rate.
Setting [8] is: 10 μg added to perfusate, percentage of the maximum response due to salbutamol, perfused rat heart, read-out: Heart Tension.
Where [9] appears, read: final concentration in whole blood 300 µM.

In the case of `COc1ccc(C[C@@H](C)NC[C@H](O)c2cccc(C(F)(F)F)c2)cc1F` (racemic) [Example 9, N-[2-(3-Fluoro-4-methoxyphenyl)-1-methylethyl]-2-hydroxy-2-(3-trifluoromethylphenyl)ethanamine hydrobromide-(RR,SS) diastereoisomer], the “Reduction in area under Blood glucose curve (%)” value (“Reduction in area … (%)” below) with Female CFLP mice [1] (dose 2.5 μ moles/kg po) stood at 18%. In addition, the response vs control in vivo at 25.5 mg/kg with Female CFLP mice [2] (setting [3]) was 115%; with Female CFLP mice [2] (read-out: Mean Food Intake (%)) it was 78%. The figures for the Emax at 0.01 mg with Rat hearts (setting [4]) and with Rat hearts (setting [5]) were 16% and 4%, respectively.
Consider `CC(=O)Oc1ccccc1C(=O)O` [Aspirin, reference compound], for which the Dose-ratio in the assay on platelets (setting [6]) is given as 2.4 ± 0.3(3).
With `OCCN(CCO)c1nc(N2CCCCC2)c2nc(N(CCO)CCO)nc(N3CCCCC3)c2n1` [Dipyridamole, reference compound], in the assay on platelets (setting [6]), the Dose-ratio is 3.7 ± 1.1(4).
Take `CC(Cc1ccc(OCc2ccccc2)cc1)NCC(O)c1cccc(C(F)(F)F)c1` (stereo not shown) [Example 1, N-[2-(4-Benzyloxyphenyl)-1-methylethyl]-2-hydroxy-2-(3-trifluoromethylphenyl)ethanamine]: the “Reduction in area … (%)” value in the assay on Female CFLP mice [1] (dose 12.5 μ moles/kg po) was 36%. The response vs control in vivo at 23.8 mg/kg is 115% in the assay on Female CFLP mice [2] (setting [3]) and 100% in the assay with Female CFLP mice [2] (read-out: Mean Food Intake (%)). In addition, the Emax at 0.01 mg was 0% in the assay on Rat hearts (setting [7]) and 7% with Rat hearts (setting [8]).
On to `CC(Cc1ccc(O)cc1)NCC(O)c1cccc(C(F)(F)F)c1` (stereo not shown) [Example 2, N-[2-(4-Hydroxyphenyl)-1-methylethyl]-2-hydroxy-2-(3-trifluoromethylphenyl)ethanamine], for which the “Reduction in area … (%)” value in the assay with Female CFLP mice [1] (dose 12.5 μ moles/kg po) amounted to 59%. Also, the response vs control in vivo at 18.8 mg/kg in the assay with Female CFLP mice [2] (setting [3]) was found to be 126%; with Female CFLP mice [2] (read-out: Mean Food Intake (%)) it was 90%. Also, the Emax at 0.01 mg with Rat hearts (setting [4]) worked out at 73%; in the assay with Rat hearts (setting [5]) it was 64%. Also, the result with rat ear was Active. The Dose-ratio in the assay with platelets (setting [9]) turned out to be 2.2.
In the case of `COc1ccc(CC(C)NCC(O)c2cccc(C(F)(F)F)c2)cc1OC` (stereo not shown) [Example 3, N-[2-(3,4-Dimethoxyphenyl)-1-methylethyl]-2-hydroxy-2-(3-trifluoromethylphenyl)ethanamine], the “Reduction in area … (%)” value in the assay on Female CFLP mice [1] (dose 12.5 μ moles/kg po) stood at 43%. The response vs control in vivo at 21.3 mg/kg in the assay with Female CFLP mice [2] (setting [3]) was determined as 109%; with Female CFLP mice [2] (read-out: Mean Food Intake (%)), 100%. Also, the values for the Emax at 0.01 mg in the assay on Rat hearts (setting [7]) and with Rat hearts (setting [8]) were 14% and 33%, respectively. For the same compound, the outcome with rat ear was Active.
On to `COc1ccc(CC(C)NCC(O)c2cccc(C(F)(F)F)c2)cc1F` (stereo not shown) [Example 4, N-[2-(3-Fluoro-4-methoxyphenyl)-1-methylethyl]-2-hydroxy-2 (3-trifluoromethylphenyl)ethanamine], for which, in the assay on Female CFLP mice [1] (dose 1.0 μ moles/kg po), the “Reduction in area … (%)” value was found to be 28%. The figures for the response vs control in vivo at 20.7 mg/kg in the assay with Female CFLP mice [2] (setting [3]) and in the assay with Female CFLP mice [2] (read-out: Mean Food Intake (%)) were 113% and 86%, respectively. Besides, the Emax at 0.01 mg was 0% in the assay with Rat hearts (setting [4]) and 5% with Rat hearts (setting [5]). In the assay with platelets (setting [9]), the Dose-ratio was found to be 2.3.
Take `COc1ccc(CC(C)NCC(O)c2cccc(C(F)(F)F)c2)cc1` (stereo not shown) [Example 5, N-[2-(4-Methoxyphenyl)-1-methylethyl]-2-hydroxy-2-(3-trifluoromethylphenyl) ethanamine]: the “Reduction in area … (%)” value in the assay on Female CFLP mice [1] (dose 1.0 μ moles/kg po) worked out at 27%. Further, the response vs control in vivo at 19.6 mg/kg in the assay with Female CFLP mice [2] (setting [3]) amounted to 119%; with Female CFLP mice [2] (read-out: Mean Food Intake (%)), 88%. Further, the Emax at 0.01 mg was 0% in the assay on Rat hearts (setting [4]) and 8% in the assay with Rat hearts (setting [5]).
Consider `COc1cc(CC(C)NCC(O)c2cccc(C(F)(F)F)c2)ccc1OCc1ccccc1` (stereo not shown) [Example 6, N-[2-(4-Benzyloxy-3-methoxyphenyl)-1-methylethyl]-2-hydroxy-2-(3-trifluoromethylphenyl)ethanamine], for which the results for the response vs control in vivo at 25.6 mg/kg in the assay on Female CFLP mice [2] (setting [3]) and in the assay with Female CFLP mice [2] (read-out: Mean Food Intake (%)) were 114% and 75%, respectively. The figures for the Emax at 0.01 mg in the assay with Rat hearts (setting [7]) and with Rat hearts (setting [8]) were 6% and 25%, respectively.
`CC(Cc1ccc(OCc2ccccc2)c(Cl)c1)NCC(O)c1cccc(C(F)(F)F)c1` (stereo not shown) [Example 7, N-[2-(4-Benzyloxy-3-chlorophenyl)-1-methylethyl]-2-hydroxy-2-(3-trifluoromethylphenyl)ethanamine]: in the assay with Female CFLP mice [1] (dose 12.5 μ moles/kg po), the “Reduction in area … (%)” value is 28%. For the same compound, the Emax at 0.01 mg with Rat hearts (setting [7]) and with Rat hearts (setting [8]) was 0% throughout.
Take `CC(Cc1ccc(O)c(Cl)c1)NCC(O)c1cccc(C(F)(F)F)c1` (stereo not shown) [Example 8, N-[2-(3-Chloro-4-hydroxyphenyl)-1-methylethyl]-2-hydroxy-2-(3-trifluoromethylphenyl)ethanamine]: the “Reduction in area … (%)” value in the assay with Female CFLP mice [1] (dose 2.5 μ moles/kg po) is listed as 11%. In addition, the response vs control in vivo at 20.8 mg/kg turned out to be 118% with Female CFLP mice [2] (setting [3]) and 88% in the assay with Female CFLP mice [2] (read-out: Mean Food Intake (%)). Moreover, the Emax at 0.01 mg in the assay on Rat hearts (setting [4]) came to 23%; in the assay with Rat hearts (setting [5]), 8%.
Turning to `CCCCCCCCCCOc1ccc(CC(C)NCC(O)c2cccc(C(F)(F)F)c2)cc1` (stereo not shown) [Example 10, N-[2-(4-^nDecyloxyphenyl)-1-methylethyl)-2-hydroxy-2-(3-trifluoromethylphenyl) ethanamine], the “Reduction in area … (%)” value in the assay with Female CFLP mice [1] (dose 5.0 μ moles/kg po) is 48%. Also, the values for the response vs control in vivo at 26.7 mg/kg in the assay with Female CFLP mice [2] (setting [3]) and in the assay with Female CFLP mice [2] (read-out: Mean Food Intake (%)) were 118% and 89%, respectively.
`CCCCCOc1ccc(CC(C)NCC(O)c2cccc(C(F)(F)F)c2)cc1` (stereo not shown) [Example 11, N-[2-(4-^nPentyloxyphenyl)-1-methylethyl]-2-hydroxy-2-(3-trifluoromethylphenyl) ethanamine]: the “Reduction in area … (%)” value in the assay with Female CFLP mice [1] (dose 2.5 μ moles/kg po) is 47%. Moreover, the response vs control in vivo at 23.6 mg/kg worked out at 118% in the assay with Female CFLP mice [2] (setting [3]) and 106% with Female CFLP mice [2] (read-out: Mean Food Intake (%)).
As to `CC(Cc1ccc(OC(C)C)cc1)NCC(O)c1cccc(C(F)(F)F)c1` (stereo not shown) [Example 12, N-(2-(4-Isopropoxyphenyl)-1-methylethyl]-2-hydroxy-2-(3-trifluoromethylphenyl) ethanamine], the “Reduction in area … (%)” value with Female CFLP mice [1] (dose 2.5 μ moles/kg po) was 52%. For the same compound, the response vs control in vivo at 21.2 mg/kg in the assay with Female CFLP mice [2] (setting [3]) is 122%; with Female CFLP mice [2] (read-out: Mean Food Intake (%)) it was 94%.
`COc1ccc(CCNCC(O)c2cccc(C(F)(F)F)c2)cc1` (stereo not shown) [Example 13, N-[2-(4-Methoxyphenyl)ethyl]-2-hydroxy-2-(3-trifluoromethylphenyl) ethanamine]: the “Reduction in area … (%)” value in the assay with Female CFLP mice [1] (dose 5.0 μ moles/kg po) was found to be 27%. In addition, the response vs control in vivo at 18.9 mg/kg was determined as 112% with Female CFLP mice [2] (setting [3]) and 104% in the assay on Female CFLP mice [2] (read-out: Mean Food Intake (%)).
Take `COc1ccc(CCC(C)(C)NCC(O)c2cccc(C(F)(F)F)c2)cc1` (stereo not shown) [Example 14, N-[3-(4-Methoxyphenyl)-1,1-dimethylpropyl]-2-hydroxy-2-(3-trifluoromethylphenyl) ethanamine]: the “Reduction in area … (%)” value with Female CFLP mice [1] (dose 100 μ moles/kg po) was 34%.
